ChEMBL document CHEMBL5465560, “Selectivity Literature for EUbOPEN Chemogenomic Library” (2024)

What was measured:
[1] = test system: T1, Receptor-type tyrosine-protein kinase FLT3 (Homo sapiens), P36888 [D835V]; experiment: Selectivity interaction (KinomeScan (DiscoverX)) EUB0001079a FLT3; conditions: at 1 µM
T1 sequence (whole entry): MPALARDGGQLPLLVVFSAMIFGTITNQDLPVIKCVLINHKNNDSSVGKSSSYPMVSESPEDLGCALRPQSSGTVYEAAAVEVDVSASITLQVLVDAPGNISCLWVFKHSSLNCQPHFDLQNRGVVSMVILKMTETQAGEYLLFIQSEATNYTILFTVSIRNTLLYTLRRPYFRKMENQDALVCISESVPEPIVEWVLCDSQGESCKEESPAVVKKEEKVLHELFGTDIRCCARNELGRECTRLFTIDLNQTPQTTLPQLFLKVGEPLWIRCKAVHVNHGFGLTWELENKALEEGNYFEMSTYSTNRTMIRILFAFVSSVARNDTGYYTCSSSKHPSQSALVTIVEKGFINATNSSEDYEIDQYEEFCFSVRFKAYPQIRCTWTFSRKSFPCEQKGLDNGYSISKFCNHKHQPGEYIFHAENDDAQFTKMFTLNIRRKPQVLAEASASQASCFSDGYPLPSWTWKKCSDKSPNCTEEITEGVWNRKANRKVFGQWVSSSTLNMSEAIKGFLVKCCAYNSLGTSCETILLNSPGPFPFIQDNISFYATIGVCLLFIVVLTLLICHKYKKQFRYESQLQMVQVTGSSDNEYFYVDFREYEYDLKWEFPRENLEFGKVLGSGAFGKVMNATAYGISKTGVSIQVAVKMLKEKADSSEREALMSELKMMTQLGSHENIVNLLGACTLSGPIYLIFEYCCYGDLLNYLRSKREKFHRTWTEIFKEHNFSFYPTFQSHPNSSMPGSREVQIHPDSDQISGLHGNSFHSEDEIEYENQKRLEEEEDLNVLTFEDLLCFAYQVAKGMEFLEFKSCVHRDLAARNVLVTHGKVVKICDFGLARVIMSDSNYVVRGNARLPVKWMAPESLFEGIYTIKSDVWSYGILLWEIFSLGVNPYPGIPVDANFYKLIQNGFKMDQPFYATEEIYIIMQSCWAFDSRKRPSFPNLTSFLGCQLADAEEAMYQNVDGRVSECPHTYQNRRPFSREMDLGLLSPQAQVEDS

[2] = molecular target: T2, Myosin-IIIb (Homo sapiens) (UniProt Q8WXR4); experiment: Selectivity interaction (KinomeScan (DiscoverX)) EUB0000666a MYO3B; conditions: at 10 µM
T2 sequence (whole entry): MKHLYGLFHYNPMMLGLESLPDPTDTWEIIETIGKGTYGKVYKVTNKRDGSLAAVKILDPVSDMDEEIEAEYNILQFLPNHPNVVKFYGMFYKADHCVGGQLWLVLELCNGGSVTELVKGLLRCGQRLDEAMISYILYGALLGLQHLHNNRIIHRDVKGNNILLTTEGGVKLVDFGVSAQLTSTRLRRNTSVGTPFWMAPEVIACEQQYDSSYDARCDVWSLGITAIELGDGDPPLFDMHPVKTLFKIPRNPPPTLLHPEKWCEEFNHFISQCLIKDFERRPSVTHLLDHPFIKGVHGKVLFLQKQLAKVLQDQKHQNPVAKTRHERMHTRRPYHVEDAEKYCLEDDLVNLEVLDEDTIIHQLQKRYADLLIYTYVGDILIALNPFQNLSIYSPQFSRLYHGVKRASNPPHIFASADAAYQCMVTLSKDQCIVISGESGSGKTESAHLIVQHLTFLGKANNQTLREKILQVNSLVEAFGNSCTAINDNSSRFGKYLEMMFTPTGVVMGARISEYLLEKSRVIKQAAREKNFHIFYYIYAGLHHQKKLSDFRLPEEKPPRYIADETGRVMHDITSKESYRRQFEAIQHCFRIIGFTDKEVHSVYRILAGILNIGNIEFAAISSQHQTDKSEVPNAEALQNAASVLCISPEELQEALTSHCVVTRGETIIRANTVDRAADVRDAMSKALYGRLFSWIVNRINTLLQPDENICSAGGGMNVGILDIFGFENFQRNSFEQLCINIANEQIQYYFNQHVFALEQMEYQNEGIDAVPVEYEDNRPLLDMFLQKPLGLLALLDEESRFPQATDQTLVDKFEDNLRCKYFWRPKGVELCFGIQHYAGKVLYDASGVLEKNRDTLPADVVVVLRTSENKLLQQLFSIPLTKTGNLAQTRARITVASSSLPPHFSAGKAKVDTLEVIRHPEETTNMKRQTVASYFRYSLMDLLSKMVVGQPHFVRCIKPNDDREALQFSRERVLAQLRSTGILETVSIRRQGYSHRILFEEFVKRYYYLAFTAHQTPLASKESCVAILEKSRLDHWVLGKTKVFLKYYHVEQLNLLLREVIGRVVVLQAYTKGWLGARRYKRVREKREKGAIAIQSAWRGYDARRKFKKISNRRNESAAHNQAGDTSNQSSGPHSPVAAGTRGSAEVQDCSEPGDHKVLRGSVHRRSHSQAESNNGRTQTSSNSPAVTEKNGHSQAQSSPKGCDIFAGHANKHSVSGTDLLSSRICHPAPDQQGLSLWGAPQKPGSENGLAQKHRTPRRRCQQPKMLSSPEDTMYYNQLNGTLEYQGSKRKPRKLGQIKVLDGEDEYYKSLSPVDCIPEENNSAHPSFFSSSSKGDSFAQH

[3] = molecular target: Cyclin-dependent kinase 5 (Homo sapiens, UniProt Q00535); experiment: Selectivity interaction (KinomeScan (DiscoverX)) EUB0001049a CDK5; conditions: at 1 µM
Chain of Cyclin-dependent kinase 5 (Q00535 whole entry, looked up): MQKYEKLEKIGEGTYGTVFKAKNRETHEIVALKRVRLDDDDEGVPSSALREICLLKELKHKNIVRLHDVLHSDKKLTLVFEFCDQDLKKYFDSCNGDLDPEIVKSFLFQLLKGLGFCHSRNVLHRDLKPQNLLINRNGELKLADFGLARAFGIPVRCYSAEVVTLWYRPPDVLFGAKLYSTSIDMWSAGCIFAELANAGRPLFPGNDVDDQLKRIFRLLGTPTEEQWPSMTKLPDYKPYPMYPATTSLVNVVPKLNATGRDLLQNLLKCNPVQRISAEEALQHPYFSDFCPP

[4] = molecular target: [Pyruvate dehydrogenase (acetyl-transferring)] kinase isozyme 1, mitochondrial (Homo sapiens, UniProt Q15118)
Chain of [Pyruvate dehydrogenase (acetyl-transferring)] kinase isozyme 1, mitochondrial (Q15118 whole entry): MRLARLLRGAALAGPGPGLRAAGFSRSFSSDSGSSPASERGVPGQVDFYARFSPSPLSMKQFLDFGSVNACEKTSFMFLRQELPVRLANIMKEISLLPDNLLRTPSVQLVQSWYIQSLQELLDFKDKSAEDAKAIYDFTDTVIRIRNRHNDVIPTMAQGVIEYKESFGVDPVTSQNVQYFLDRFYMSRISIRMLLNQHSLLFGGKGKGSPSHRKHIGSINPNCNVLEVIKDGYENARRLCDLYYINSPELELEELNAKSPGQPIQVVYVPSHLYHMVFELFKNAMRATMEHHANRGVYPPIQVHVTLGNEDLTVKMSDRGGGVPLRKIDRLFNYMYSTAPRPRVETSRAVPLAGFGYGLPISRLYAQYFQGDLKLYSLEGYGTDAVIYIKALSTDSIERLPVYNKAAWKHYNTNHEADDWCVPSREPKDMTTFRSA

[5] = molecular target: T3, Phosphatidylinositol 5-phosphate 4-kinase type-2 gamma (Homo sapiens) (UniProt Q8TBX8); experiment: Selectivity interaction (KinomeScan (DiscoverX)) EUB0001619a PIP4K2C; conditions: at 1 µM
T3 sequence (whole entry): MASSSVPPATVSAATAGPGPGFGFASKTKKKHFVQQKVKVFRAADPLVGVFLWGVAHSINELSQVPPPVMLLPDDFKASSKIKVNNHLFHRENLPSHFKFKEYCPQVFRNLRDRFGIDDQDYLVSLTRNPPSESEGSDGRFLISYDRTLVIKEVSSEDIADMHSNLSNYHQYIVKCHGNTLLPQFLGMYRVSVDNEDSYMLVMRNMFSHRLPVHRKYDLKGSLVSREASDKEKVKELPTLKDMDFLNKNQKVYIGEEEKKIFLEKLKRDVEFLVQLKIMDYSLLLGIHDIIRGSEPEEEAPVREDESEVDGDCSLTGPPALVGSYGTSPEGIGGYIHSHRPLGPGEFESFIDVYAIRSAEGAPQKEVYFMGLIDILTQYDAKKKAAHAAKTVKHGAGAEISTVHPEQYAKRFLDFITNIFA

[6] = molecular target: ALK tyrosine kinase receptor (Homo sapiens, UniProt Q9UM73); experiment: Selectivity interaction (KinaseProfiler screening (Millipore)) EUB0000601a ALK; conditions: at 3 µM
Chain of ALK tyrosine kinase receptor (Q9UM73 19-1620 limits assumed): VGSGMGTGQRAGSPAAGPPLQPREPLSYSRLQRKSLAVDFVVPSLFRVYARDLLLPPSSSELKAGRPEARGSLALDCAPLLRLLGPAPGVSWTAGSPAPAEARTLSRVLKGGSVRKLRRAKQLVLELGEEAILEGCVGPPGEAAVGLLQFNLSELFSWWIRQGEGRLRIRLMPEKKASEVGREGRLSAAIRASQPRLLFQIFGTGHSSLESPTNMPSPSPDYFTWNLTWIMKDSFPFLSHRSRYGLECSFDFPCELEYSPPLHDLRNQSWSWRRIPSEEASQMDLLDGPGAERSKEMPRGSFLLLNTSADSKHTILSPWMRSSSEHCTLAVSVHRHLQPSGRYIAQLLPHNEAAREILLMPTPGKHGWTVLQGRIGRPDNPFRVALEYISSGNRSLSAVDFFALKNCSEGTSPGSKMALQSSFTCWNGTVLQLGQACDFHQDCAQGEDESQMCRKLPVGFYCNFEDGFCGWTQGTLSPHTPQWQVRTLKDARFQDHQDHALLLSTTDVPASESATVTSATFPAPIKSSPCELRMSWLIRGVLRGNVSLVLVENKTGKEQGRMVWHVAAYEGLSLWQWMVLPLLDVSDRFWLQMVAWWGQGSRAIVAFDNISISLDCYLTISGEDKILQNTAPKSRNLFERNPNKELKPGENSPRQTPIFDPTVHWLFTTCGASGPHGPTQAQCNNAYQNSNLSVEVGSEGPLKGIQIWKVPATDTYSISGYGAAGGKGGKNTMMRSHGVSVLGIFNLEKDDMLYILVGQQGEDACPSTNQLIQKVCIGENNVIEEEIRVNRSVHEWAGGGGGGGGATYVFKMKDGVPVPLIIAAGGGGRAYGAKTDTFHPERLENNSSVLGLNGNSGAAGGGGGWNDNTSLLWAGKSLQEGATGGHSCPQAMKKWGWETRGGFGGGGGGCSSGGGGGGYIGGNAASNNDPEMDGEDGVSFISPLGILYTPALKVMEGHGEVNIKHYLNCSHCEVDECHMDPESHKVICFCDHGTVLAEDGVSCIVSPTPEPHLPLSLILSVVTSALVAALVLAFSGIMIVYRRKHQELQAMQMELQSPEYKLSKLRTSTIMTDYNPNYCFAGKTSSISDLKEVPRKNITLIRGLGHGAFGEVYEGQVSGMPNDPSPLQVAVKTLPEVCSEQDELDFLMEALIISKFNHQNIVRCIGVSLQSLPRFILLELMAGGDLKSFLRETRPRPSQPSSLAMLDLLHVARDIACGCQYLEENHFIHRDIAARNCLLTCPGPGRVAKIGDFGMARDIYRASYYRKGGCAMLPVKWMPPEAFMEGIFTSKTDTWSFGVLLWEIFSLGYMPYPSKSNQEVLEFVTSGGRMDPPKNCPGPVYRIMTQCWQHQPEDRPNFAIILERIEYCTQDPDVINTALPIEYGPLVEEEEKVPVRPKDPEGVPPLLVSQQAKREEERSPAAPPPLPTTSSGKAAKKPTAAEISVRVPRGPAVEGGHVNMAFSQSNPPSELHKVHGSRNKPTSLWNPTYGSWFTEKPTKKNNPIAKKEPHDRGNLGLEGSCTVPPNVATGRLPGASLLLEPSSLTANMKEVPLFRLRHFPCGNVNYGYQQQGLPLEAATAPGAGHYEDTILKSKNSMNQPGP

Compound: Nc1cnc(N2CCc3cc(S(=O)(=O)Nc4c(F)cc(Cl)cc4F)cc(N4CCCC4=O)c32)nc1 [TP-020n]
- % of control [1]: 100%

Compound: O=C(NOC[C@H](O)CO)c1ccc(F)c(F)c1Nc1ccc(I)cc1F
- % of control [2]: 99%

Compound: COc1cc(Nc2nc(C)cc(-c3cnn4nc(OC)ccc34)n2)cc(C(F)(F)F)c1
- % of control [3]: 89%

Compound: CCc1cccc(CC)c1NC(=O)c1nn(C)c2c1CCc1cnc(Nc3ccc(C(=O)NC4CCN(C)CC4)cc3OC(F)(F)F)nc1-2
- IC50 [4]: > 10 µM

Compound: N#Cc1cccc(-c2c[nH]c3ncnc(N4CCOCC4)c23)c1
- % of control [5]: 21%

Compound: CCc1cc(Nc2nccc(-c3c(-c4ccc(OC)c(C(=O)Nc5c(F)cccc5F)c4)nc4ccccn34)n2)c(OC)cc1N1CCC(N2CCN(S(C)(=O)=O)CC2)CC1
- % of inhibition [6]: 39%
